Measured values as given in ChEMBL document CHEMBL1142788, “Synthesis and antibacterial activity of alkyl derivatives of the glycopeptide antibiotic A40926 and their amides” (2005).
≈ marks a conversion by molar mass, not a printed value.

Legend:
Enterococcus faecalis [1] = experiment: Minimum inhibitory concentration against vancomycin-sensitive Enterococcus faecalis in the presence of 30% bovine serum(n=3)(range = 8-4); assay type: functional
Enterococcus faecalis [2] = experiment: Minimum inhibitory concentration against vancomycin-A Enterococcus faecalis in the presence of 30% bovine serum(n=4) (range = 0.125-16mg/L); assay type: functional
Enterococcus faecium [3] = experiment: Minimum inhibitory concentration against vancomycin-A Enterococcus faecium in the presence of 30% bovine serum (n=1); assay type: functional
[4] = system: Staphylococcus epidermidis; experiment: Minimum inhibitory concentration against methicillin-sensitive Staphylococcus epidermidis in the presence of 30% bovine serum; assay type: functional
[5] = system: Staphylococcus haemolyticus; experiment: Minimum inhibitory concentration against Staphylococcus haemolyticus in the presence of 30% bovine serum; assay type: functional
Enterococcus faecium [6] = experiment: Minimum inhibitory concentration against vancomycin-sensitive Enterococcus faecium in the presence of 30% bovine serum(n=1); assay type: functional
Staphylococcus aureus [7] = experiment: Minimum inhibitory concentration against methicillin-sensitive Staphylococcus aureus
Enterococcus faecium [8] = experiment: Minimum inhibitory concentration against vancomycin-A Enterococcus faecium in the presence of 30% bovine serum (n=1) (range = 32>128mg/L); assay type: functional
Enterococcus faecalis [9] = experiment: Minimum inhibitory concentration against vancomycin-A Enterococcus faecalis in the presence of 30% bovine serum (n=4) (range = 8-64mg/L); assay type: functional
Enterococcus faecalis [10] = experiment: Minimum inhibitory concentration against vancomycin-sensitive Enterococcus faecalis in the presence of 30% bovine serum(n=3)(range = 0.125-0.25mg/l); assay type: functional
Staphylococcus aureus [11] = experiment: Minimum inhibitory concentration against methicillin-resistant Staphylococcus aureus
Enterococcus faecium [12] = experiment: Minimum inhibitory concentration against vancomycin-A Enterococcus faecium in the presence of 30% bovine serum (n=1) (range = 2-64mg/L); assay type: functional
Enterococcus faecalis [13] = experiment: Minimum inhibitory concentration against vancomycin-sensitive Enterococcus faecalis in the presence of 30% bovine serum(n=3)(range =0.125-0.25 mg/l); assay type: functional
Enterococcus faecium [14] = experiment: Minimum inhibitory concentration against vancomycin-A Enterococcus faecium in the presence of 30% bovine serum (n=1) (range = 816 mg/L); assay type: functional
Enterococcus faecalis [15] = experiment: Minimum inhibitory concentration against vancomycin-A Enterococcus faecalis in the presence of 30% bovine serum (n=4) (Range = 0.125 - 16 mg/L); assay type: functional
Enterococcus faecalis [16] = experiment: Minimum inhibitory concentration against vancomycin-sensitive Enterococcus faecalis in the presence of 30% bovine serum (n=3); assay type: functional
Enterococcus faecalis [17] = experiment: Minimum inhibitory concentration against vancomycin-sensitive Enterococcus faecalis in the presence of 30% bovine serum(n=3)(range = >=0.125-0.25mg/l); assay type: functional
Enterococcus faecalis [18] = experiment: Minimum inhibitory concentration against vancomycin-A Enterococcus faecalis in the presence of 30% bovine serum (n=4); assay type: functional
[19] = system: Staphylococcus epidermidis; experiment: Minimum inhibitory concentration against methicillin-resistant Staphylococcus epidermidis in the presence of 30% bovine serum; assay type: functional
Enterococcus faecium [20] = experiment: Minimum inhibitory concentration against vancomycin-A Enterococcus faecium in the presence of 30% bovine serum (n=1) (128>128mg/L); assay type: functional

Structure (SMILES)	MIC (Enterococcus faecalis [1]) [µg/mL]	MIC (Enterococcus faecalis [2]) [µg/mL]	MIC (Enterococcus faecium [3]) [µg/mL]	MIC [4] [µg/mL]	MIC [5] [µg/mL]	MIC (Enterococcus faecium [6]) [µg/mL]	MIC (Staphylococcus aureus [7]) [µg/mL]	MIC (Enterococcus faecium [8]) [µg/mL]	MIC (Enterococcus faecalis [9]) [µg/mL]	MIC (Enterococcus faecalis [10]) [µg/mL]	MIC (Staphylococcus aureus [11]) [µg/mL]	MIC (Enterococcus faecium [12]) [µg/mL]	MIC (Enterococcus faecalis [13]) [µg/mL]	MIC (Enterococcus faecium [14]) [µg/mL]	MIC (Enterococcus faecalis [15]) [µg/mL]	MIC (Enterococcus faecalis [16]) [µg/mL]	MIC (Enterococcus faecalis [17]) [µg/mL]	MIC (Enterococcus faecalis [18]) [µg/mL]	MIC [19] [µg/mL]	MIC (Enterococcus faecium [20]) [µg/mL]
CCCCC(CC)Oc1ccc(CNC2[C@H](Oc3c4cc5cc3Oc3ccc(cc3Cl)[C@@H](O)C3NC(=O)[C@H](NC(=O)[C@@H]5NC(=O)[C@H]5NC(=O)[C@@H](Cc6ccc(cc6)O4)NC(=O)[C@H](NC)c4ccc(O)c(c4)Oc4cc(O)c(Cl)c5c4)c4ccc(O)c(c4)-c4c(O[C@H]5O[C@H](CO)[C@@H](O)[C@H](O)[C@@H]5O)cc(O)cc4[C@@H](C(=O)NCCCN(C)C)NC3=O)OC(C(=O)NCCCN(C)C)C(O)[C@@H]2O)cc1 (stereo partly drawn)	< 0.125	< 16	16	< 0.125	4	< 0.125	< 0.125	–	–	–	–	–	–	–	–	–	–	–	–	–
CCCCCCCCOc1ccc(CNC2[C@H](Oc3c4cc5cc3Oc3ccc(cc3Cl)[C@@H](O)C3NC(=O)[C@H](NC(=O)[C@@H]5NC(=O)[C@H]5NC(=O)[C@@H](Cc6ccc(cc6)O4)NC(=O)[C@H](NC)c4ccc(O)c(c4)Oc4cc(O)c(Cl)c5c4)c4ccc(O)c(c4)-c4c(O[C@H]5O[C@H](CO)[C@@H](O)[C@H](O)[C@@H]5O)cc(O)cc4[C@@H](C(=O)O)NC3=O)OC(C(=O)O)C(O)[C@@H]2O)cc1 (stereo partly drawn)	–	–	–	16	16	0.5	2 (≈ 1.13 µM)	> 128	64	0.125	1 (≈ 0.565 µM)	–	–	–	–	–	–	–	–	–
CCCCCCCCCCc1ccc(CNC2[C@H](Oc3c4cc5cc3Oc3ccc(cc3Cl)[C@@H](O)C3NC(=O)[C@H](NC(=O)[C@@H]5NC(=O)[C@H]5NC(=O)[C@@H](Cc6ccc(cc6)O4)NC(=O)[C@H](NC)c4ccc(O)c(c4)Oc4cc(O)c(Cl)c5c4)c4ccc(O)c(c4)-c4c(O[C@H]5O[C@H](CO)[C@@H](O)[C@H](O)[C@@H]5O)cc(O)cc4[C@@H](C(=O)O)NC3=O)OC(C(=O)O)C(O)[C@@H]2O)cc1 (stereo partly drawn)	–	–	–	32	32	0.5	4 (≈ 2.25 µM)	–	–	–	2 (≈ 1.12 µM)	> 64	0.125	–	–	–	–	–	–	–
CCCCCCOc1ccc(CNC2[C@H](Oc3c4cc5cc3Oc3ccc(cc3Cl)[C@@H](O)C3NC(=O)[C@H](NC(=O)[C@@H]5NC(=O)[C@H]5NC(=O)[C@@H](Cc6ccc(cc6)O4)NC(=O)[C@H](NC)c4ccc(O)c(c4)Oc4cc(O)c(Cl)c5c4)c4ccc(O)c(c4)-c4c(O[C@H]5O[C@H](CO)[C@@H](O)[C@H](O)[C@@H]5O)cc(O)cc4[C@@H](C(=O)NCCCN(C)C)NC3=O)OC(C(=O)NCCCN(C)C)C(O)[C@@H]2O)cc1 (stereo partly drawn)	–	–	–	< 0.125	16	< 0.125	> 0.125	–	–	–	–	–	–	> 16	16	< 0.125	–	–	–	–
CCCCCCC(CCCC)CNC1[C@H](Oc2c3cc4cc2Oc2ccc(cc2Cl)[C@@H](O)C2NC(=O)[C@H](NC(=O)[C@@H]4NC(=O)[C@H]4NC(=O)[C@@H](Cc5ccc(cc5)O3)NC(=O)[C@H](NC)c3ccc(O)c(c3)Oc3cc(O)c(Cl)c4c3)c3ccc(O)c(c3)-c3c(O[C@H]4O[C@H](CO)[C@@H](O)[C@H](O)[C@@H]4O)cc(O)cc3[C@@H](C(=O)O)NC2=O)OC(C(=O)O)C(O)[C@@H]1O (stereo partly drawn)	–	–	–	2	32	1	4 (≈ 2.33 µM)	–	–	–	2 (≈ 1.16 µM)	–	–	–	–	–	≤ 0.125	> 128	32	> 128
